Tests used:
[1] = test system: L/V BET bromodomains (BD1 and BD2 of BRD2, BRD3 and BRD4); assay: competitive AlphaLISA (Bio-JQ1 displacement); assay type: binding, human
BRD2 BD1 L/V = BRD2 BD1 L/V (Homo sapiens, UniProt P25440, L110V); assay: competitive AlphaLISA; assay type: binding
BRD2 BD2 L/V = BRD2 BD2 L/V (Homo sapiens, UniProt P25440, L383V); assay: competitive AlphaLISA; assay type: binding
BRD3 BD1 L/V = BRD3 BD1 L/V (Homo sapiens, UniProt Q15059, L70V); assay: competitive AlphaLISA; assay type: binding
BRD3 BD2 WT = BRD3 BD2 WT (Homo sapiens, UniProt Q15059); assay: competitive AlphaLISA; assay type: binding
BRD3 BD2 WT, sequence (Q15059 306-416): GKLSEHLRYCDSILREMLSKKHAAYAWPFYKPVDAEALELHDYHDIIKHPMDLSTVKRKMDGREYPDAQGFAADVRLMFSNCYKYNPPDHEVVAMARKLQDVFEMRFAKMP

BRD3 BD2 L/V = BRD3 BD2 L/V (Homo sapiens, UniProt Q15059, L345V); assay: competitive AlphaLISA; assay type: binding
BRD3 BD2 L/V, sequence (Q15059 306-416 L345V limits assumed): as the sequence (Q15059 306-416) above, with L40V counted along it

BRD4 BD2 WT = BRD4 BD2 WT (Homo sapiens, UniProt O60885); assay: competitive AlphaLISA; assay type: binding
BRDT BD1 WT = BRDT BD1 WT (Homo sapiens, UniProt Q58F21); assay: competitive AlphaLISA; assay type: binding
BRDT BD2 WT = BRDT BD2 WT (Homo sapiens, UniProt Q58F21); assay: competitive AlphaLISA; assay type: binding
[2] = molecular target: WT somatic BET bromodomains; assay: ITC; conditions: mean and SD of all somatic bromodomains
in vitro = conditions: PAMPA, pH 7.4
Intrinsic Clearance = conditions: mouse liver microsomes
Y1 (h) = Y1 (h) (Homo sapiens, UniProt P25929); assay: CEREP ExpresSProfile; conditions: read-out: Mean % of control specific binding (±SD)
mu (MOP) (h) = mu (MOP) (h) (Homo sapiens, UniProt P35372); assay: CEREP ExpresSProfile; conditions: read-out: Mean % of control specific binding (±SD)
mu (MOP) (h), sequence (P35372 whole entry): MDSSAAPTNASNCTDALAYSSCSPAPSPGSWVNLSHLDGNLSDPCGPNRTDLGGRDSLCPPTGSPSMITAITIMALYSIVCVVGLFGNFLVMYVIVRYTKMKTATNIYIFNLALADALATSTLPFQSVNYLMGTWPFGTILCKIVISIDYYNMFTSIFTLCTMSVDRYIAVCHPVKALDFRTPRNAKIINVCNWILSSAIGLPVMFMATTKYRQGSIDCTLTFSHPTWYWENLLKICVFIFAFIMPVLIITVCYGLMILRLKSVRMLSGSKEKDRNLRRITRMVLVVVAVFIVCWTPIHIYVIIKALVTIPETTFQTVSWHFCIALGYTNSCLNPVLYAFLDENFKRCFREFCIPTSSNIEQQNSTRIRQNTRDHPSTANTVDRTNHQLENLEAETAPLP

H2 (h) = H2 (h) (Homo sapiens, UniProt P25021); assay: CEREP ExpresSProfile; conditions: read-out: Mean % of control specific binding (±SD)
5-HT6 (h) = 5-HT6 (h) (Homo sapiens, UniProt P50406); assay: CEREP ExpresSProfile; conditions: read-out: Mean % of control specific binding (±SD)
Y2 (h) = Y2 (h) (Homo sapiens, UniProt P49146); assay: CEREP ExpresSProfile; conditions: read-out: Mean % of control specific binding (±SD)
Y2 (h), sequence (P49146 whole entry): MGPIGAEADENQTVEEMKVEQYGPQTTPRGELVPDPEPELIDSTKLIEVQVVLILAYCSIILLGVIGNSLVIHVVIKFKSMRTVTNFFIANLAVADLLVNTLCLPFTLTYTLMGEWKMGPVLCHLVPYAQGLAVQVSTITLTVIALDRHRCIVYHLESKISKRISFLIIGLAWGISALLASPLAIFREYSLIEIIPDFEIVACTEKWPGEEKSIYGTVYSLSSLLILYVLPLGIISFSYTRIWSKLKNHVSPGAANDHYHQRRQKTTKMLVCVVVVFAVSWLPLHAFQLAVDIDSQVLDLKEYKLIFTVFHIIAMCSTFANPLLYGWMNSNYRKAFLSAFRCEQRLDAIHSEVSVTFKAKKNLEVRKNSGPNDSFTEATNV

GABA (non-selective) = assay: CEREP ExpresSProfile; assay type: binding; conditions: 1 µM
H1 (h) = H1 (h) (Homo sapiens, UniProt P35367); assay: CEREP ExpresSProfile; conditions: read-out: Mean % of control specific binding (±SD)
NTS1 (NT1) (h) = NTS1 (NT1) (h) (Homo sapiens, UniProt P30989); assay: CEREP ExpresSProfile; conditions: read-out: Mean % of control specific binding (±SD)
beta 2 (h) = beta 2 (h) (Homo sapiens, UniProt P07550); assay: CEREP ExpresSProfile; conditions: read-out: Mean % of control specific binding (±SD)
beta 2 (h), sequence (P07550 whole entry): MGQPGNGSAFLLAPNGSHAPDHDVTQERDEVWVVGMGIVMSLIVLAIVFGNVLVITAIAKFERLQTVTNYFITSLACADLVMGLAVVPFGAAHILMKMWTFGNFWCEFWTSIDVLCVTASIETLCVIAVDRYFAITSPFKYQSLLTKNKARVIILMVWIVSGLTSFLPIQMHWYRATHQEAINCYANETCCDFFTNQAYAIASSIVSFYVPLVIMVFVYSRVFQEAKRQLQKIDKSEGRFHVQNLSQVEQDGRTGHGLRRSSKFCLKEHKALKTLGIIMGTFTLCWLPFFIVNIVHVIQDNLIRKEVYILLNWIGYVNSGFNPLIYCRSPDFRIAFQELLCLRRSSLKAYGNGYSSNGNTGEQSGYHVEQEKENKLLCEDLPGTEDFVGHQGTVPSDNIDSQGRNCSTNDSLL

5-HT1A (h) = 5-HT1A (h) (Homo sapiens, UniProt P08908); assay: CEREP ExpresSProfile; conditions: read-out: Mean % of control specific binding (±SD)
CCR1 (h) = CCR1 (h) (Homo sapiens, UniProt P32246); assay: CEREP ExpresSProfile; conditions: read-out: Mean % of control specific binding (±SD)
CCR1 (h), sequence (P32246 whole entry): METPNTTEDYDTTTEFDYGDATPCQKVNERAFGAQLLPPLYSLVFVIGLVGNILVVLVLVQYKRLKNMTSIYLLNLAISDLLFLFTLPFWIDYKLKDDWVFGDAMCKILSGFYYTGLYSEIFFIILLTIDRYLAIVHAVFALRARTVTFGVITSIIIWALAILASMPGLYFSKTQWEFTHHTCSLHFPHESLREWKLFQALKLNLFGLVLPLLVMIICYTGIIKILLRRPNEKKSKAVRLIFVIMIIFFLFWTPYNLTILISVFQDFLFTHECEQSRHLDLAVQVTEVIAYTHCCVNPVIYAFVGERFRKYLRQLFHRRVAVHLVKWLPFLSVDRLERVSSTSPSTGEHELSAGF

V1a (h) = V1a (h) (Homo sapiens, UniProt P37288); assay: CEREP ExpresSProfile; conditions: read-out: Mean % of control specific binding (±SD)
V1a (h), sequence (P37288 whole entry): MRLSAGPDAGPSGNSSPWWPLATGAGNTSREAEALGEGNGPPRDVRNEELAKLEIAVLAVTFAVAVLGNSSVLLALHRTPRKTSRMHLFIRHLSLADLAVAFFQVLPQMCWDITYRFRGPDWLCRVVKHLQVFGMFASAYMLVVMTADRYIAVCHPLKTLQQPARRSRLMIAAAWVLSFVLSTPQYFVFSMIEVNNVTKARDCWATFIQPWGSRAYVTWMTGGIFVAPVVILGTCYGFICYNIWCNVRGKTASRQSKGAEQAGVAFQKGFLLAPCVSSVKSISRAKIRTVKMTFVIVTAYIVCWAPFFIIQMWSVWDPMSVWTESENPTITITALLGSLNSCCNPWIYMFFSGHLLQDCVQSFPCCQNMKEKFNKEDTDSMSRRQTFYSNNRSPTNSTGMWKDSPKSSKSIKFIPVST

NK2 (h) = NK2 (h) (Homo sapiens, UniProt P21452); assay: CEREP ExpresSProfile; conditions: read-out: Mean % of control specific binding (±SD)
A1 (h) = A1 (h) (Homo sapiens, UniProt P30542); assay: CEREP ExpresSProfile; conditions: read-out: Mean % of control specific binding (±SD)
From the text: (§1) Receptor Reference Compound Mean % of control specific
Receptor & Ion-Channel Screening
CEREP ExpresSProfile panel

NK3 (h) = NK3 (h) (Homo sapiens, UniProt P29371); assay: CEREP ExpresSProfile; conditions: read-out: Mean % of control specific binding (±SD)
NK3 (h), sequence (P29371 whole entry): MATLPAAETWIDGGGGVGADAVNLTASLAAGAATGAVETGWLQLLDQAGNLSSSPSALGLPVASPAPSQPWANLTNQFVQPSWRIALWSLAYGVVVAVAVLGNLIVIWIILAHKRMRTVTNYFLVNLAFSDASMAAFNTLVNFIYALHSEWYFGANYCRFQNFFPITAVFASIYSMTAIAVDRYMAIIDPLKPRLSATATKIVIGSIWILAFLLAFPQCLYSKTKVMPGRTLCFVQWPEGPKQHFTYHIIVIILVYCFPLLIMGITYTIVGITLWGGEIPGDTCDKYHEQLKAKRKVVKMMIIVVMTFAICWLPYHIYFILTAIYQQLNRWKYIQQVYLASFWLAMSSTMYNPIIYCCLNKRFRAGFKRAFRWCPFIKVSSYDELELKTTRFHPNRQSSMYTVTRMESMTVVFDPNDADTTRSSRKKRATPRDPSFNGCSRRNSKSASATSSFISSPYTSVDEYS
From the text: as §1
Receptor & Ion-Channel Screening
CEREP ExpresSProfile panel

alpha 1 (non-selective) = assay: CEREP ExpresSProfile; assay type: binding; conditions: 1 µM
CXCR2 (IL-8B) (h) = CXCR2 (IL-8B) (h) (Homo sapiens, UniProt P25025); assay: CEREP ExpresSProfile; conditions: read-out: Mean % of control specific binding (±SD)
From the text: as §1
Receptor & Ion-Channel Screening
CEREP ExpresSProfile panel

5-HT3 (h) = 5-HT3 (h) (Homo sapiens, UniProt P46098); assay: CEREP ExpresSProfile; conditions: read-out: Mean % of control specific binding (±SD)
5-HT3 (h), sequence (P46098 24-478): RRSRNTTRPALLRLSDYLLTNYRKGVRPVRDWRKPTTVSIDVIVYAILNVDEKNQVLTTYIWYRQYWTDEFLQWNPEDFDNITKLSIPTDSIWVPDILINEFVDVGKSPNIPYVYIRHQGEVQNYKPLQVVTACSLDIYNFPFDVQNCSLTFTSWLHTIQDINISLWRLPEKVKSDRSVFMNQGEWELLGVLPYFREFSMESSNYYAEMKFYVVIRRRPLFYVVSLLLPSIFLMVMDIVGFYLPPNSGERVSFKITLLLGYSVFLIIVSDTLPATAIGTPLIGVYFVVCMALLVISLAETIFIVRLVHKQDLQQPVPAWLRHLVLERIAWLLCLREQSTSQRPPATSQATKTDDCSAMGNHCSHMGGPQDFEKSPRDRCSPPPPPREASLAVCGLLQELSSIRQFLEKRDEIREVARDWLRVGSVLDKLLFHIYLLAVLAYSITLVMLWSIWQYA
From the text: as §1
Receptor & Ion-Channel Screening
CEREP ExpresSProfile panel

beta 1 (h) = beta 1 (h) (Homo sapiens, UniProt P08588); assay: CEREP ExpresSProfile; conditions: read-out: Mean % of control specific binding (±SD)
EP4 (h) = EP4 (h) (Homo sapiens, UniProt P35408); assay: CEREP ExpresSProfile; conditions: read-out: Mean % of control specific binding (±SD)
A3 (h) = A3 (h) (Homo sapiens, UniProt P0DMS8); assay: CEREP ExpresSProfile; conditions: read-out: Mean % of control specific binding (±SD)
A3 (h), sequence (P0DMS8 whole entry): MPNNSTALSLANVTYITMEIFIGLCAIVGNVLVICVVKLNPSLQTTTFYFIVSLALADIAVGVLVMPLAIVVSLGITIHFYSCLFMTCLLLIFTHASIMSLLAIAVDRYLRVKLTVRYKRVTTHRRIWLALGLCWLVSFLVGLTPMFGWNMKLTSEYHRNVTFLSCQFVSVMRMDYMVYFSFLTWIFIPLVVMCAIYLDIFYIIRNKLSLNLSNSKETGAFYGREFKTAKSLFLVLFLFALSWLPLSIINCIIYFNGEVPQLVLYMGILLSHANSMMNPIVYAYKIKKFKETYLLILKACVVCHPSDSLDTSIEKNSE
From the text: as §1
Receptor & Ion-Channel Screening
CEREP ExpresSProfile panel

ETA (h) = ETA (h) (Homo sapiens, UniProt P25101); assay: CEREP ExpresSProfile; conditions: read-out: Mean % of control specific binding (±SD)
ETA (h), sequence (P25101 21-427): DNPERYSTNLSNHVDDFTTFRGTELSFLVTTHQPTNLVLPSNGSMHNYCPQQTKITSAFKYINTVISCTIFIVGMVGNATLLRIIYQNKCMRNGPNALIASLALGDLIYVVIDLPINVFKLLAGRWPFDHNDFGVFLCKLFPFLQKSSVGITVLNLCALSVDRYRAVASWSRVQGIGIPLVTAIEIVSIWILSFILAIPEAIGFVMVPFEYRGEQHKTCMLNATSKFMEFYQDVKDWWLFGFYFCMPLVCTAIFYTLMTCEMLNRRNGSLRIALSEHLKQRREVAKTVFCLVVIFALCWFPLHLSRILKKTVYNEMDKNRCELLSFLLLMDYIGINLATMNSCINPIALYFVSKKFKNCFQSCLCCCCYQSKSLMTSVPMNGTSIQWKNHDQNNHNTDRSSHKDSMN
From the text: as §1
Receptor & Ion-Channel Screening
CEREP ExpresSProfile panel

dopamine transporter (h) = dopamine transporter (h) (Homo sapiens, UniProt Q01959); assay: CEREP ExpresSProfile; conditions: read-out: Mean % of control specific binding (±SD)
dopamine transporter (h), sequence (Q01959 whole entry): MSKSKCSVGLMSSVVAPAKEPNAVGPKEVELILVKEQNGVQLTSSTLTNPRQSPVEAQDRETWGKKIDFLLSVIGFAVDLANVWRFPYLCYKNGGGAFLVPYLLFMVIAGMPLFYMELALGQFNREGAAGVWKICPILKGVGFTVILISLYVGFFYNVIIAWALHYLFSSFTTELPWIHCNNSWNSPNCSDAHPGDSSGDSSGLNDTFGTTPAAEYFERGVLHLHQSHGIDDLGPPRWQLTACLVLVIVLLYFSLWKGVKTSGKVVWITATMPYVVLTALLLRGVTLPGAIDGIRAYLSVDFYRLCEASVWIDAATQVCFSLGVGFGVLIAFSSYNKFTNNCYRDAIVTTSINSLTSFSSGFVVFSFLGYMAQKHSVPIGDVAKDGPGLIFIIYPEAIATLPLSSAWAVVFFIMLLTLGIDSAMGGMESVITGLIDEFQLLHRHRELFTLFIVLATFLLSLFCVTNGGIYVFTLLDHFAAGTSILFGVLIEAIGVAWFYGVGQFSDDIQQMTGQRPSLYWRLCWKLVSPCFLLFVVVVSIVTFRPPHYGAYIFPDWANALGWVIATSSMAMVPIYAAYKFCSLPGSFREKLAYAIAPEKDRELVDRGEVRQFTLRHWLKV
From the text: as §1
Receptor & Ion-Channel Screening
CEREP ExpresSProfile panel

MT1 (ML1A) (h) = MT1 (ML1A) (h) (Homo sapiens, UniProt P48039); assay: CEREP ExpresSProfile; assay type: binding
MT1 (ML1A) (h), sequence (P48039 whole entry): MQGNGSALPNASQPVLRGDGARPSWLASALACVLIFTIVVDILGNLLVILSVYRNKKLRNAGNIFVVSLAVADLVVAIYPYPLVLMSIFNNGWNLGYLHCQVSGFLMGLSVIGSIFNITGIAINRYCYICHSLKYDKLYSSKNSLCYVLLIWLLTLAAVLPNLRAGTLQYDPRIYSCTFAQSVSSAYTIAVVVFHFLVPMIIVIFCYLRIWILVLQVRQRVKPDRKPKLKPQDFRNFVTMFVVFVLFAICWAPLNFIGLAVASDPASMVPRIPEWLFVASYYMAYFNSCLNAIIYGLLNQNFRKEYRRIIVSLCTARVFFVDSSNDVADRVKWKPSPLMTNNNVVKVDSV

[3] = molecular target: GFP-labelled WT BRD4 in U2OS cells (Homo sapiens, UniProt O60885); assay: FRAP; conditions: 200 nM, 2 μM SAHA
[4] = WT Cell Cytotoxicity (CellTiter-Glo); conditions: human, MV4-11 cells (BET-dependent AML cell line)
MV4-11 = assay: WT Cell Cytotoxicity (CellTiter-Glo); conditions: MV4-11 and HL-60
[5] = WT Cell Cytotoxicity (CellTiter-Glo); conditions: human, HL-60 cells (BET-dependent AML cell line)

BRD2 BD2 L/V, sequence (P25440 344-455 L383V): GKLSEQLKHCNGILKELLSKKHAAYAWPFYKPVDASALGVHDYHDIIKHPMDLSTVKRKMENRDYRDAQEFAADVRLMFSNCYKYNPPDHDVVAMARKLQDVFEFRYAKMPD

Question: Which results are given for `CC[C@@H](C(=O)OC)[C@@H]1N=C(c2ccc(Cl)cc2)c2ccc(OC)cc2-n2c(C)nnc21` (racemic) [Compound 8]?
Answer: AlphaLISA pIC50 ± SD Δ ([1]; L/V minus WT): 1.4 ± 0.2; AlphaLISA pIC50 ± SD L/V ([1]; mean and SD of all somatic bromodomains, active enantiomer concentration): 6.8 ± 0.2; IC50 (BRD2 BD1 L/V): 316 nM; IC50 (BRD2 BD2 L/V): 200 nM; IC50 (BRD3 BD1 L/V): 126 nM; IC50 (BRD3 BD2 WT): 3.98 µM; IC50 (BRD3 BD2 L/V): 79.4 nM; IC50 (BRD4 BD2 WT): 3.16 µM; IC50 (BRDT BD1 WT): 15.8 µM; IC50 (BRDT BD2 WT): 3.98 µM; ITC pKd ± SD WT [2]: <4.2; Papp (in vitro): 15.5 ×10⁻⁶ cm/s; CL int (Intrinsic Clearance): 4.1 ml min^–1 g^–1

Question: Which remaining activity at 1 µM (Y1 (h)) does the source give for `COC(=O)[C@H](C)[C@@H]1N=C(c2ccc(Cl)cc2)c2ccc(OC)cc2-n2c(C)nnc21` [(2R,3S)-7] here?
Answer: 122%

Question: And the remaining activity at 1 µM (mu (MOP) (h))?
Answer: 119%

Question: And the remaining activity at 1 µM (H2 (h))?
Answer: 117%

Question: What about the remaining activity at 1 µM (5-HT6 (h)) of the same molecule?
Answer: 112%

Question: And the remaining activity at 1 µM (Y2 (h))?
Answer: 110%

Question: And the “Mean % of control specific binding (±SD)” value (GABA (non-selective))?
Answer: 110 (1) %

Question: And the remaining activity at 1 µM (H1 (h))?
Answer: 108%

Question: And the remaining activity at 1 µM (NTS1 (NT1) (h))?
Answer: 106%

Question: And the remaining activity at 1 µM (beta 2 (h))?
Answer: 105%

Question: And the remaining activity at 1 µM (5-HT1A (h))?
Answer: 104%

Question: And the remaining activity at 1 µM (CCR1 (h))?
Answer: 102%

Question: What about the remaining activity at 1 µM (V1a (h)) of the same molecule?
Answer: 102%

Question: What about the remaining activity at 1 µM (NK2 (h)) of the same molecule?
Answer: 101%

Question: And the remaining activity at 1 µM (A1 (h))?
Answer: 100%

Question: What about the remaining activity at 1 µM (NK3 (h)) of the same molecule?
Answer: 99%

Question: What about the “Mean % of control specific binding (±SD)” value (alpha 1 (non-selective)) of the same molecule?
Answer: 99 (12) %

Question: What about the remaining activity at 1 µM (CXCR2 (IL-8B) (h)) of the same molecule?
Answer: 96%

Question: And the remaining activity at 1 µM (5-HT3 (h))?
Answer: 96%

Question: And the remaining activity at 1 µM (beta 1 (h))?
Answer: 95%

Question: What about the remaining activity at 1 µM (EP4 (h)) of the same molecule?
Answer: 93%

Question: And the remaining activity at 1 µM (A3 (h))?
Answer: 91%

Question: What about the remaining activity at 1 µM (ETA (h)) of the same molecule?
Answer: 87%

Question: What about the remaining activity at 1 µM (dopamine transporter (h)) of the same molecule?
Answer: 84%

Question: And the inhibition at 1 µM (MT1 (ML1A) (h))?
Answer: 77%

Question: And the remaining activity at 1 µM (MT1 (ML1A) (h); read-out: Mean % of control specific binding (±SD))?
Answer: 23%

Question: And the “blockade of WT BRD4 (FRAP)” value [3]?
Answer: no statistically significant blockade

Question: What about the CC50 at 48 h [4] of the same molecule?
Answer: 2510 nM

Question: What about the cytotoxicity (MV4-11) of the same molecule?
Answer: no cytotoxicity below 1 μM

Question: What about the CC50 at 48 h [5] of the same molecule?
Answer: > 5.01 µM

From paper PMC5909127, “Optimization of a “bump-and-hole” approach to allele-selective BET bromodomain inhibition” (Chemical Science, 2018)
